Experimental findings from patent US20200215036A1, “BENZIMIDAZOLE COMPOUNDS AS KINASE INHIBITORS” (GB005, Inc., priority 2017, published 2020) are described below.

What is called IC50 is the concentration needed to halve the response being measured.

The target in one experiment is T1, ITK (Homo sapiens, UniProt Q08881).
T1 sequence (Q08881 1-620): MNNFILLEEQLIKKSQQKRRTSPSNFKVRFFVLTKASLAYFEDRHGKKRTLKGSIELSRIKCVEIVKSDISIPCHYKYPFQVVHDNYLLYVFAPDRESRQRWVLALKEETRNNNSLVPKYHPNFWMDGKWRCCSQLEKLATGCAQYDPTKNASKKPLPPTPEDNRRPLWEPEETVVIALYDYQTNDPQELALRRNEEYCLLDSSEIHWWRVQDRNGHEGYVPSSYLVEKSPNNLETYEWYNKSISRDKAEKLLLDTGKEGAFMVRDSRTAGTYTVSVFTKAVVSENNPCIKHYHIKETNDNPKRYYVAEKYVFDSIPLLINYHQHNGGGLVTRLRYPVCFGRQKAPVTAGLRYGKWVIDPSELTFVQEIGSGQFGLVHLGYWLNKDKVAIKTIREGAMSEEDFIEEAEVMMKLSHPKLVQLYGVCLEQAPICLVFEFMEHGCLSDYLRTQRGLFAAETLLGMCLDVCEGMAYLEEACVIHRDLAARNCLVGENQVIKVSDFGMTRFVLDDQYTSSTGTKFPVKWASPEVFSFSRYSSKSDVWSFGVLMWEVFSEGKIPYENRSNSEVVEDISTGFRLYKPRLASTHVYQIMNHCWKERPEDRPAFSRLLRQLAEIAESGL
Kind of experiment: Biochemical kinase assay (Nanosyn, micro-fluidic detection), ITK. The conditions noted are these: 12 concentrations, 3 hours incubation, 1 uM peptide substrate. Here is the method:
(§1) The in vitro kinase assays were performed at Nanosyn (Santa Clara, Calif.) utilizing micro-fluidic detection Technology. The test compounds were serially pre-diluted in DMSO and added, by the acoustic dispensing (Labcyte® 550), directly to 384we11 assay plates into 10 uL of a buffer with enzyme comprising: 100 mM HEPES, pH7.5, 5 mM MgCl2, 0.1% bovine serum albumin, 1 mM DTT, 0.01% Triton X-100 and the enzyme. Final DMSO concentration was maintained at 1% in all samples, including the controls. The reactions were initiated by addition of ATP (to the specified concentration) and the fluorescently labeled peptide substrate to a final concentration of 1 uM, and incubated for 3 hours at […]. Following incubation, the reactions were quenched by addition of 40 μL of termination buffer (100 mM HEPES, pH7.5, 0.01% Triton X-100, 50 mM EDTA). Terminated plates were analyzed using Caliper LabChip® 3000 microfluidic electrophoresis instrument (Caliper Life Sciences/Perkin Elmer). The enzymatic modification of the peptide substrate (phosphorylation) results in a change of net charge enabling electrophoretic separation of product from substrate. As substrate and product are separated by electrophoresis, two peaks of fluorescence are observed. Change in the relative fluorescence intensity of the substrate and product peaks was the parameter measured, reflecting enzyme activity. In the presence of inhibitor, the ratio between product and substrate is altered: signal of the product decreases, while the signal of the substrate increases. Activity in each test sample was determined as the product to sum ratio (PSR): P/(S+P), where P is the peak height of the product and S is the peak height of the FAM-cAMP substrate. For each compound, enzyme activity was measured at 12 concentrations spaced by 3× dilution intervals. Negative control samples (0%−inhibition in the absence of inhibitor, DMSO only) and positive control samples (100%−inhibition, in the absence of enzyme or in the presence of control inhibitor) were assembled in replicates of four and were used to calculate %−inhibition values in the presence of compounds. Percent inhibition (Pinh) was determined using the following equation: Pinh=(PSR0%−PSRinh)/(PSR0%−PSR100%)*100, where PSRinh is the product sum ratio in the presence of inhibitor, PSR0% is the product sum ratio in the absence of inhibitor and PSR100% is the product sum ratio in 100%-inhibition control samples. To determine IC50 values, the inhibition curves (Pinh versus inhibitor concentration) were fitted by 4 parameter sigmoid dose-response model using XLfit software (IDBS).

The target in a further experiment is BTK (Homo sapiens, UniProt Q06187). The experiment is described as follows: Biochemical kinase assay (Nanosyn, micro-fluidic detection), BTK. The conditions noted are these: 12 concentrations, 3 hours incubation, 1 uM peptide substrate. Here is the method:
as §1

For another experiment, the target named is T2, TXK (Homo sapiens, UniProt P42681).
T2 sequence (P42681 1-527): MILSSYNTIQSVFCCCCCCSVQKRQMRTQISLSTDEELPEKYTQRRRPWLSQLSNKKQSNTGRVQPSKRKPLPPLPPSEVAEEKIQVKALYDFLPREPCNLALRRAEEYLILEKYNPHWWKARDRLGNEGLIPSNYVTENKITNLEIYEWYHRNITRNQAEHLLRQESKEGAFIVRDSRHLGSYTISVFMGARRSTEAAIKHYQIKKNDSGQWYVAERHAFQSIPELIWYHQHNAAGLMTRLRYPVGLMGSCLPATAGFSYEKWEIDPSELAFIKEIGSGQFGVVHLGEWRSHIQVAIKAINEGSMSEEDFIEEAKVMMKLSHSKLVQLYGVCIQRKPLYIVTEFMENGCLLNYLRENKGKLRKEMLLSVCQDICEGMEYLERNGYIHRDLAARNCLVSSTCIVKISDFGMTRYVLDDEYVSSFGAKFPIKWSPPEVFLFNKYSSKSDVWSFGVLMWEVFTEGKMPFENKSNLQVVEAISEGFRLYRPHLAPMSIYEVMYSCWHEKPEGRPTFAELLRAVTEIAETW
The experiment is described as follows: Biochemical kinase assay (Nanosyn, micro-fluidic detection), TXK. The conditions noted are these: for IC50: 12 concentrations, 3 hours incubation, 1 uM peptide substrate; for ITK/TXK Ratio: ratio of ITK IC50 to TXK IC50. As to the method: as §1

Another experiment deals with T3, TEC (Homo sapiens, UniProt P42680).
T3 sequence (P42680 1-631): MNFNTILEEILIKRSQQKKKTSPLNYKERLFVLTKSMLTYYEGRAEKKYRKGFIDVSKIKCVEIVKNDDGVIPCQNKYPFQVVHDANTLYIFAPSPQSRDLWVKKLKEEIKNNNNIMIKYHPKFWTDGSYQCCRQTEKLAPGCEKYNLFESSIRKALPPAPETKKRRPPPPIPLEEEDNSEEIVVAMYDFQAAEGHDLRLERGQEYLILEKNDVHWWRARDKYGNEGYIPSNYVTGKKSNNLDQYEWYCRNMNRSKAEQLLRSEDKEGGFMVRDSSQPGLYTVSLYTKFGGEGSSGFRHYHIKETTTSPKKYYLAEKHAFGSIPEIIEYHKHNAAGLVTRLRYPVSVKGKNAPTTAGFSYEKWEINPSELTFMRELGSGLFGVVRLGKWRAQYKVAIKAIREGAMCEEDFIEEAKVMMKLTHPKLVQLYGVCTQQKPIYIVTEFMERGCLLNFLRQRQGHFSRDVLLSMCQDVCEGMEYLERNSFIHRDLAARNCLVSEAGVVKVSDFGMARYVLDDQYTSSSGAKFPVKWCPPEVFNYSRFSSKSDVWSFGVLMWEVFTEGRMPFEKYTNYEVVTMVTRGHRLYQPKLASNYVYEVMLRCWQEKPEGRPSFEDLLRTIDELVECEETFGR
Kind of experiment: Biochemical kinase assay (Nanosyn, micro-fluidic detection), TEC. The conditions noted are these: 12 concentrations, 3 hours incubation, 1 uM peptide substrate. Here is the method:
as §1

Chain of BTK (Q06187 whole entry): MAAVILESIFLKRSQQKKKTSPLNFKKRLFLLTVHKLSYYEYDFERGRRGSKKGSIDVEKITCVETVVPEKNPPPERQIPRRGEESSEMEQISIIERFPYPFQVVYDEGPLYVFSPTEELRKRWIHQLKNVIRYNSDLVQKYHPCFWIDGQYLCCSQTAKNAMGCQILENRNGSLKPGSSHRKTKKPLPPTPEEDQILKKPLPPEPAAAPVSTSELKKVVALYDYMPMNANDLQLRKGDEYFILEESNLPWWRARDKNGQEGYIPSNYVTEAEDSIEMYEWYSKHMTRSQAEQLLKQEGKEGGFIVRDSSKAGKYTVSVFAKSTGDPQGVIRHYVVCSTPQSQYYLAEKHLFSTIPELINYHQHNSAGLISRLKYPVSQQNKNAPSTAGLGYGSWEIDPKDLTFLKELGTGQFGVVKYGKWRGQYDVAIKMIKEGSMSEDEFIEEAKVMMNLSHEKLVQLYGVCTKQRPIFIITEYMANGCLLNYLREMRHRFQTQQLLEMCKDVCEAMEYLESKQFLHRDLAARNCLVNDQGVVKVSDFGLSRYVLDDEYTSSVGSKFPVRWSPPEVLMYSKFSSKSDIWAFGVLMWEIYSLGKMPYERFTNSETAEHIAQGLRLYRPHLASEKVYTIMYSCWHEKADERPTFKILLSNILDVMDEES

Turning to `C=CC(=O)N1CC[C@]2(C1)C[C@H](n1c(NC(=O)c3cc(C)no3)nc3cc(CN4CCCC4)ccc31)C2` [Compound 1], the IC50 at ITK was found to be 0.127 µM; against BTK it was 0.0161 µM; against TXK, 0.00528 µM; against TEC it was 0.0955 µM. In addition, the “ITK/TXK Ratio” value at TXK was found to be 24.1.
With `C=CC(=O)N1CC[C@]2(C1)C[C@H](n1c(NC(=O)c3cc(C)no3)nc3cc(CN4CCOCC4)ccc31)C2` [Compound 2], the half-inhibitory concentration (IC50) against ITK is 0.0409 µM; at BTK, 0.0147 µM; at TXK it was 0.00302 µM; against TEC, 0.0111 µM. Also, on TXK, the “ITK/TXK Ratio” value came out at 13.5.
As for `C=CC(=O)N1CC[C@]2(C1)C[C@H](n1c(NC(=O)c3cc(C)no3)nc3cc(CN4CCN(C)CC4)ccc31)C2` [Compound 3], the 50% inhibitory concentration (IC50) against ITK was found to be 0.0809 µM; against BTK, 0.0179 µM; against TXK it was 0.00348 µM; at TEC, 0.0439 µM. At TXK, the “ITK/TXK Ratio” value is on record as 23.2.
With `C=CC(=O)N1CC[C@]2(C1)C[C@H](n1c(NC(=O)c3cc(C(C)C)no3)nc3cc(CN4CCCC4)ccc31)C2` [Compound 4], the IC50 against ITK was 0.553 µM; on BTK, 0.012 µM; on TXK it was 0.00142 µM; on TEC, 0.0963 µM. For the same compound, the “ITK/TXK Ratio” value on TXK stood at 390.
The like results for `C=CC(=O)N1CC[C@]2(C1)C[C@H](n1c(NC(=O)c3cc(C4CCC4)no3)nc3cc(CN4CCCC4)ccc31)C2` [Compound 5] were, in that order, 0.576 µM, 0.00765 µM, 0.00125 µM, 0.0505 µM and 461.
Consider `C=CC(=O)N1CC[C@]2(C1)C[C@H](n1c(NC(=O)c3cc(C4CCCCC4)no3)nc3cc(CN4CCCC4)ccc31)C2` [Compound 6], for which the IC50 on ITK is more than 1 µM; at BTK, 0.0101 µM; against TXK, 0.00178 µM; against TEC it was 0.105 µM. Moreover, the “ITK/TXK Ratio” value at TXK is given as more than 561.
For the compound `C=CC(=O)N1CC[C@]2(C1)C[C@H](n1c(NC(=O)c3cc(C(C)(C)C)no3)nc3cc(CN4CCCC4)ccc31)C2` [Compound 7], the IC50 against ITK was 0.536 µM; on BTK, 0.0597 µM; against TXK, 0.00504 µM; on TEC, 0.529 µM.
Consider `C=CC(=O)N1CC[C@]2(C1)C[C@H](n1c(NC(=O)c3cc(-c4ccccc4)no3)nc3cc(CN4CCCC4)ccc31)C2` [Compound 8], for which the half-inhibitory concentration (IC50) against ITK came to 0.369 µM; on BTK it was 0.0257 µM; against TXK it was 0.00197 µM; at TEC, 0.136 µM. Besides, the “ITK/TXK Ratio” value at TXK is 187.
